This experiment is described as follows: Nav 1.7In Vitro PX Assay: HEK 293 cells stably transfected with human Nav1.7 were recorded in whole cell voltage clamp mode with the PatchXpress automated electrophysiology system (Molecular Devices, LLC, Sunnyvale, Calif.). Compound effects were measured on a partially inactivated state of the sodium channel. Cells were clamped to a holding potential yielding 20 to 50% inactivation. To elicit sodium current, channels were activated by pulsing to −10 mV for 20 msec. This voltage protocol was repeated at a rate of 0.1 Hz throughout the experiment. A single concentration of test compound was applied to cells for a duration of 3 minutes. Peak sodium current was measured at the end of the compound addition period to determine percent inhibition. Three to five cells were tested per concentration, and IC50 curves were fitted to percent inhibition as a function of concentration. As to conditions: HEK293.

`CNC(=O)N(c1ccc(S(=O)(=O)Nc2ccon2)cn1)c1cc(Cl)c(-c2cc(F)cc(Cl)c2)cc1OC`: the IC50 came to 28 nM.
In turn, `CNC(=O)N(c1ccc(S(=O)(=O)Nc2ccon2)cn1)c1cc(F)c(-c2cc(F)c(F)c(F)c2)cc1OC` registered an IC50 of 86 nM.

Usually IC50 stands for the concentration needed to halve the response being measured. Read a low IC50 as inhibition by little substance.

The record behind these values is ChEMBL document CHEMBL5727726, “Pyridine sulfonamides” (2020).
